In publication PMC6462414 (Nature, 2018):
Values after ≈ are worked out from the molar mass of the structure shown. Like-named read-outs stand apart in the source and are kept apart here.

What was measured:
S. aureus MW2 [1] = format: cell-based, Staphylococcus aureus; conditions: for retinoid-resistant mutants by plating: 10^10 CFU MW2 plated on agar with 2.5×, 5× or 10× MIC
[2] = test system: MRSA-MW2-infected C. elegans; assay: C. elegans-MRSA killing assay; format: in vivo, Caenorhabditis elegans; conditions: for C. elegans protected against MW2-induced death: at concentrations above in vitro MICs
MRSA strain MW2 = assay: MIC / growth inhibition of MRSA strain MW2; format: cell-based, Staphylococcus aureus; conditions: for minimum inhibitory concentration (MIC): MRSA strain MW2
[3] = test system: exponential-phase S. aureus MW2 cells; assay: SYTOX Green membrane permeabilization, exponential-phase MW2; format: cell-based, Staphylococcus aureus
S. aureus MW2 persisters [4] = assay: Viability of MRSA MW2 persisters; format: cell-based, Staphylococcus aureus; conditions: for killing of MRSA persister cells: stationary-phase MW2, 4 h; for eradication of MRSA persisters: at 8 μg ml^−1
[5] = Giant unilamellar vesicle integrity; conditions: DOPC:DOPG 7:3
[6] = cited from earlier work
human erythrocytes = assay: Haemolytic activity; format: cell-based; conditions: 2% human erythrocytes, 1 h
S. aureus MW2 persisters [7] = conditions: not told
S. aureus MW2 [8] = assay: Transmission electron microscopy of retinoid-treated cells; format: cell-based, Staphylococcus aureus; conditions: 10× MIC
[9] = test system: MRSA growing and persister cells; assay: Synergism with gentamicin; format: cell-based, Staphylococcus aureus
[10] = test system: Enterococcus faecium strains; assay: Activity against Enterococcus faecium strains; format: cell-based
[11] = test system: Exponential-phase S. aureus MW2; assay: Cell lysis; format: cell-based, Staphylococcus aureus; conditions: 10× MIC, 4 h, OD600
[12] = test system: normal human primary hepatocytes; assay: Cytotoxicity, human primary hepatocytes; format: cell-based; conditions: 24 h
[13] = test system: persisters formed by clinical isolates including VRS1; assay: Viability of persisters of clinical S. aureus isolates; format: cell-based, Staphylococcus aureus; conditions: 8–10× MIC; including multi-drug resistant VRS1
Gram-negative species = assay: Activity against Gram-negative species; format: cell-based
[14] = test system: Exponential-phase MRSA cells (strain MW2); assay: Killing kinetics, exponential-phase MRSA MW2; format: cell-based, Staphylococcus aureus; conditions: 10× MIC, level of detection 2 × 10^2 CFU ml^−1
[15] = test system: clinical S. aureus strains; assay: Activity against panel of clinical S. aureus strains; format: cell-based, Staphylococcus aureus
MRSA MW2 biofilms = assay: Persisters in MRSA biofilms; format: cell-based, Staphylococcus aureus
[16] = test system: MW2-infected neutropenic mice; assay: Deep-seated mouse thigh MRSA infection model; format: in vivo; conditions: 20 mg kg^−1 i.p. alone or in combination with gentamicin 30 mg kg^−1 s.c.
S. aureus MW2 persisters [17] = assay: SYTOX Green membrane permeabilization, MW2 persisters; conditions: SYTOX Green uptake
[18] = Hepatic and renal toxicity in mice; format: in vivo, mouse; conditions: every 12 h for 3 days, i.p.; analogue 2 10–80 mg kg^−1, vancomycin 25 mg kg^−1; P > 0.7
[19] = 100 days serial passage in sub-MIC CD437

Question: With daptomycin as the molecule, how does the “increase in resistance after serial passage” value (“increase in resistance” below) (S. aureus MW2 [1]; serial passage in daptomycin for 15 days) read?
Answer: tenfold

Question: With `O=C(O)/C=C/c1ccc(-c2ccc(O)c(C34CC5CC(CC(C5)C3)C4)c2)cc1` [adarotene] as the molecule, how does the “MRSA-induced death of C. elegans” value ([2]; in vivo) read?
Answer: prevented the MRSA-induced death of C. elegans

Question: What about the MIC (MRSA strain MW2; Staphylococcus aureus, MRSA, read-out: minimum inhibitory concentration (MIC)) of the same molecule?
Answer: 2 µg/mL (≈ 5.34 µM)

Question: What about the “membrane permeabilization (SYTOX Green uptake)” value ([3]; exponential-phase MW2) of the same molecule?
Answer: induced membrane permeabilization

Question: And the “killing of MRSA persister cells” value (S. aureus MW2 persisters [4])?
Answer: inactive against persister cells

Question: And the “integrity of giant unilamellar vesicles” value [5]?
Answer: disrupted the integrity

Question: What about the excretion [6] of the same molecule?
Answer: excreted rapidly

Question: And the “retinoid-resistant mutants by plating” value (S. aureus MW2 [1])?
Answer: unable to obtain retinoid-resistant mutants

Question: And the “increase in resistance” value (S. aureus MW2 [1]; [19])?
Answer: twofold

Question: What about the “median haemolytic concentration (HC50)” value (human erythrocytes) of the same molecule?
Answer: greater than 32 μg ml^−1

Question: Which “permeabilization of MRSA-persister membranes” value (S. aureus MW2 persisters [7]) does the source give for `O=C(O)c1ccc(-c2ccc3cc(O)c(C45CC6CC(CC(C6)C4)C5)cc3c2)cc1` [CD1530] here?
Answer: induced rapid permeabilization

Question: And the “C. elegans protected against MW2-induced death” value [2]?
Answer: 100%

Question: And the “minimum inhibitory concentration (MIC)” value (MRSA strain MW2)?
Answer: 1 µg/mL (≈ 2.51 µM)

Question: And the “formation of mesosome-like structures” value (S. aureus MW2 [8])?
Answer: caused the formation of mesosome-like structures

Question: What about the synergism with gentamicin [9] of the same molecule?
Answer: significant synergism

Question: And the “activity against Enterococcus faecium strains” value [10]?
Answer: potent activity

Question: What about the “membrane permeabilization (SYTOX Green uptake)” value [3] of the same molecule?
Answer: induced membrane permeabilization

Question: And the “eradication of MRSA persisters” value (S. aureus MW2 persisters [4])?
Answer: completely eradicated MRSA persisters

Question: What about the “killing of MRSA persister cells” value (S. aureus MW2 persisters [4]) of the same molecule?
Answer: killed MRSA-persister cells

Question: What about the “direct lysis of bacterial cells” value [11] of the same molecule?
Answer: did not lyse bacterial cells directly

Question: And the “median lethal concentration (LC50)” value [12]?
Answer: ≥ 20 µg/mL

Question: And the “integrity of giant unilamellar vesicles” value [5]?
Answer: disrupted the integrity

Question: What about the “time to complete eradication of persisters of 13 clinical isolates” value [13] of the same molecule?
Answer: 1 to 4 h

Question: What about the “activity against Gram-negative species” value (Gram-negative species) of the same molecule?
Answer: not against Gram-negative species

Question: What about the “levels of MW2 after two hours” value [14] of the same molecule?
Answer: below the limit of detection

Question: What about the “retinoid-resistant mutants by plating” value (S. aureus MW2 [1]) of the same molecule?
Answer: unable to obtain retinoid-resistant mutants

Question: And the “increase in resistance” value (S. aureus MW2 [1]; [19])?
Answer: twofold

Question: What about the “activity against panel of clinical S. aureus strains” value [15] of the same molecule?
Answer: potent activity

Question: And the “median haemolytic concentration (HC50)” value (human erythrocytes)?
Answer: greater than 32 μg ml^−1

Question: And the “persisters in MRSA biofilms killed” value (MRSA MW2 biofilms; 16× MIC)?
Answer: around 90%

Question: And the “persisters in MRSA biofilms killed” value (MRSA MW2 biofilms; 32× MIC)?
Answer: ~100%

Question: What does the source list for `O=C(O)c1ccc2cc(-c3ccc(O)c(C45CC6CC(CC(C6)C4)C5)c3)ccc2c1` [CD437]?
Answer: efficacy in thigh infection model [16]: exhibited efficacy; permeabilization of MRSA-persister membranes (S. aureus MW2 persisters [17]): induced rapid permeabilization; C. elegans protected against MW2-induced death [2]: 100%; minimum inhibitory concentration (MIC) (MRSA strain MW2): 1 µg/mL (≈ 2.51 µM); formation of mesosome-like structures (S. aureus MW2 [8]): caused the formation of mesosome-like structures; synergism with gentamicin [9]: significant synergism; activity against Enterococcus faecium strains [10]: potent activity; membrane permeabilization (SYTOX Green uptake) ([3]; exponential-phase MW2): induced membrane permeabilization; eradication of MRSA persisters (S. aureus MW2 persisters [4]): completely eradicated MRSA persisters; killing of MRSA persister cells (S. aureus MW2 persisters [4]): killed MRSA-persister cells; direct lysis of bacterial cells [11]: did not lyse bacterial cells directly; median lethal concentration (LC50) [12]: ≥ 20 µg/mL; integrity of giant unilamellar vesicles [5]: disrupted the integrity; time to complete eradication of persisters of 13 clinical isolates [13]: 1 to 4 h; activity against Gram-negative species (Gram-negative species): not against Gram-negative species; levels of MW2 after two hours [14]: below the limit of detection; retinoid-resistant mutants by plating (S. aureus MW2 [1]): unable to obtain retinoid-resistant mutants; increase in resistance after serial passage (S. aureus MW2 [1]; [19]): twofold; activity against panel of clinical S. aureus strains [15]: potent activity; median haemolytic concentration (HC50) (human erythrocytes): greater than 32 μg ml^−1; persisters in MRSA biofilms killed (MRSA MW2 biofilms; 16× MIC): around 90%; persisters in MRSA biofilms killed (MRSA MW2 biofilms; 32× MIC): ~100%

Question: With `CN[C@H](CC(C)C)C(=O)N[C@H]1C(=O)N[C@@H](CC(N)=O)C(=O)N[C@H]2C(=O)N[C@H]3C(=O)N[C@H](C(=O)N[C@H](C(=O)O)c4cc(O)cc(O)c4-c4cc3ccc4O)[C@H](O)c3ccc(c(Cl)c3)Oc3cc2cc(c3O[C@@H]2O[C@H](CO)[C@@H](O)[C@H](O)[C@H]2O[C@H]2C[C@](C)(N)[C@H](O)[C@H](C)O2)Oc2ccc(cc2Cl)[C@H]1O` [vancomycin] as the molecule, how does the “ALT and BUN versus control” value [18] read?
Answer: lack of significant differences

Question: For `COc1ccc(-c2ccc3cc(C(=O)O)ccc3c2)cc1C12CC3CC(CC(C3)C1)C2` [adapalene], which “activity against MRSA” value (MRSA strain MW2; MRSA MW2) is on record?
Answer: ineffective against MRSA

Question: With `O=C(O)c1cn(C2CC2)c2cc(N3CCNCC3)c(F)cc2c1=O` [ciprofloxacin] as the molecule, how does the “increase in resistance” value (S. aureus MW2 [1]; serial passage in ciprofloxacin for 100 days) read?
Answer: 256 fold
